Data taken from ChEMBL document CHEMBL3407338, “Synthesis and structure-activity relationship of novel 1,4-diazabicyclo[2.2.2]octane derivatives as potent antimicrobial agents” (Eur J Med Chem, 2015).

Columns and labels:
Format in all cases: functional
Escherichia coli [1] = test: Antimicrobial activity against Escherichia coli ATCC 25922 at 1 ug/ml after 24 hrs by agar diffusion method; details: ATCC 25922, 24 h, read-out: DIZ
Bacillus subtilis [2] = test: Antimicrobial activity against Bacillus subtilis ATCC 6633 at 1 ug/ml after 24 hrs by agar diffusion method; details: ATCC 6633, 24 h, read-out: DIZ
Salmonella enterica [3] = test: Antimicrobial activity against Salmonella enterica ATCC 14028 at 1 ug/ml after 24 hrs by agar diffusion method; details: ATCC 14028, 24 h, read-out: DIZ
Staphylococcus aureus [4] = test: Antimicrobial activity against Staphylococcus aureus ATCC 25923 at 1 ug/ml after 24 hrs by agar diffusion method; details: ATCC 25923, 24 h, read-out: DIZ
Candida albicans [5] = test: Antimicrobial activity against Candida albicans ATCC 32354 at 1 ug/ml after 24 hrs by agar diffusion method; details: ATCC 32354, 24 h, read-out: DIZ
Pseudomonas aeruginosa [6] = test: Antimicrobial activity against Pseudomonas aeruginosa ATCC 9027 at 1 ug/ml after 24 hrs by agar diffusion method; details: ATCC 9027, 24 h, read-out: DIZ
Escherichia coli [7] = test: Antimicrobial activity against 10^7 CFU/ml Escherichia coli ATCC 25922 after 22 hrs by serial microdilution method; details: ATCC 25922, 22 h
Salmonella enterica [8] = test: Antimicrobial activity against 10^7 CFU/ml Salmonella enterica ATCC 14028 after 22 hrs by serial microdilution method; details: ATCC 14028, 22 h
Bacillus subtilis [9] = test: Antimicrobial activity against 10^4 CFU/ml Bacillus subtilis ATCC 6633 after 22 hrs by serial microdilution method; details: ATCC 6633, 22 h
Pseudomonas aeruginosa [10] = test: Antimicrobial activity against 10^4 CFU/ml Pseudomonas aeruginosa ATCC 9027 after 22 hrs by serial microdilution method; details: ATCC 9027, 22 h
Candida albicans [11] = test: Antimicrobial activity against 10^7 CFU/ml Candida albicans ATCC 32354 after 22 hrs by serial microdilution method; details: ATCC 32354, 22 h
Bacillus subtilis [12] = test: Antimicrobial activity against 10^7 CFU/ml Bacillus subtilis ATCC 6633 after 22 hrs by serial microdilution method; details: ATCC 6633, 22 h
Escherichia coli [13] = test: Antimicrobial activity against 10^4 CFU/ml Escherichia coli ATCC 25922 after 22 hrs by serial microdilution method; details: ATCC 25922, 22 h
Salmonella enterica [14] = test: Antimicrobial activity against 10^4 CFU/ml Salmonella enterica ATCC 14028 after 22 hrs by serial microdilution method; details: ATCC 14028, 22 h
Pseudomonas aeruginosa [15] = test: Antimicrobial activity against 10^7 CFU/ml Pseudomonas aeruginosa ATCC 9027 after 22 hrs by serial microdilution method; details: ATCC 9027, 22 h
Staphylococcus aureus [16] = test: Antimicrobial activity against 10^7 CFU/ml Staphylococcus aureus ATCC 25923 after 22 hrs by serial microdilution method; details: ATCC 25923, 22 h
Candida albicans [17] = test: Antimicrobial activity against 10^4 CFU/ml Candida albicans ATCC 32354 after 22 hrs by serial microdilution method; details: ATCC 32354, 22 h
Staphylococcus aureus [18] = test: Antimicrobial activity against 10^4 CFU/ml Staphylococcus aureus ATCC 25923 after 22 hrs by serial microdilution method; details: ATCC 25923, 22 h

CC[N+]12CC[N+](CCCCC[N+]34CC[N+](CC)(CC3)CC4)(CC1)CC2
zone of inhibition at 1 µg/mL (Escherichia coli [1]): 0 mm | zone of inhibition at 1 µg/mL (Bacillus subtilis [2]): 0 mm | zone of inhibition at 1 µg/mL (Salmonella enterica [3]): 0 mm | zone of inhibition at 1 µg/mL (Staphylococcus aureus [4]): 0 mm | zone of inhibition at 1 µg/mL (Candida albicans [5]): 0 mm | zone of inhibition at 1 µg/mL (Pseudomonas aeruginosa [6]): 0 mm

CCC[N+]12CC[N+](CCCCC[N+]34CC[N+](CCC)(CC3)CC4)(CC1)CC2
zone of inhibition at 1 µg/mL (Escherichia coli [1]): 0 mm | zone of inhibition at 1 µg/mL (Bacillus subtilis [2]): 0 mm | zone of inhibition at 1 µg/mL (Salmonella enterica [3]): 0 mm | zone of inhibition at 1 µg/mL (Staphylococcus aureus [4]): 0 mm | zone of inhibition at 1 µg/mL (Candida albicans [5]): 0 mm | zone of inhibition at 1 µg/mL (Pseudomonas aeruginosa [6]): 0 mm

CCCCCCC[N+]12CC[N+](CCCCC[N+]34CC[N+](CCCCCCC)(CC3)CC4)(CC1)CC2
zone of inhibition at 1 µg/mL (Escherichia coli [1]): 4 mm | zone of inhibition at 1 µg/mL (Bacillus subtilis [2]): 5 mm | zone of inhibition at 1 µg/mL (Salmonella enterica [3]): 0 mm | zone of inhibition at 1 µg/mL (Staphylococcus aureus [4]): 5 mm | zone of inhibition at 1 µg/mL (Candida albicans [5]): 0 mm | zone of inhibition at 1 µg/mL (Pseudomonas aeruginosa [6]): 0 mm

CCCCCCCC[N+]12CC[N+](CCCCC[N+]34CC[N+](CCCCCCCC)(CC3)CC4)(CC1)CC2.[Br-].[Br-].[Br-].[Br-]
zone of inhibition at 1 µg/mL (Escherichia coli [1]): 4 mm | zone of inhibition at 1 µg/mL (Bacillus subtilis [2]): 10 mm | zone of inhibition at 1 µg/mL (Salmonella enterica [3]): 4 mm | MBC (Escherichia coli [7]): 100 µg/mL | MIC (Escherichia coli [7]): 25 µg/mL | MBC (Salmonella enterica [8]): > 100 µg/mL | MIC (Salmonella enterica [8]): 100 µg/mL | MBC (Bacillus subtilis [9]): 50 µg/mL | MIC (Bacillus subtilis [9]): 25 µg/mL | MBC (Pseudomonas aeruginosa [10]): 50 µg/mL | MIC (Pseudomonas aeruginosa [10]): 25 µg/mL | MBC (Candida albicans [11]): < 1.6 µg/mL | MIC (Candida albicans [11]): < 1.6 µg/mL | MBC (Bacillus subtilis [12]): 100 µg/mL | MIC (Bacillus subtilis [12]): 50 µg/mL | MBC (Escherichia coli [13]): 50 µg/mL | MIC (Escherichia coli [13]): 12.5 µg/mL | MBC (Salmonella enterica [14]): 100 µg/mL | MIC (Salmonella enterica [14]): 100 µg/mL | zone of inhibition at 1 µg/mL (Staphylococcus aureus [4]): 8 mm | MBC (Pseudomonas aeruginosa [15]): > 100 µg/mL | MIC (Pseudomonas aeruginosa [15]): > 100 µg/mL | MBC (Staphylococcus aureus [16]): > 100 µg/mL | MIC (Staphylococcus aureus [16]): 50 µg/mL | zone of inhibition at 1 µg/mL (Candida albicans [5]): 0 mm | zone of inhibition at 1 µg/mL (Pseudomonas aeruginosa [6]): 0 mm | MBC (Candida albicans [17]): < 1.6 µg/mL | MIC (Candida albicans [17]): < 1.6 µg/mL | MBC (Staphylococcus aureus [18]): 100 µg/mL | MIC (Staphylococcus aureus [18]): 12.5 µg/mL

CCCCCCCCC[N+]12CC[N+](CCCCC[N+]34CC[N+](CCCCCCCCC)(CC3)CC4)(CC1)CC2.[Br-].[Br-].[Br-].[Br-]
zone of inhibition at 1 µg/mL (Escherichia coli [1]): 10 mm | zone of inhibition at 1 µg/mL (Bacillus subtilis [2]): 12 mm | zone of inhibition at 1 µg/mL (Salmonella enterica [3]): 9 mm | MBC (Escherichia coli [7]): 25 µg/mL | MIC (Escherichia coli [7]): 6.3 µg/mL | MBC (Salmonella enterica [8]): 50 µg/mL | MIC (Salmonella enterica [8]): 25 µg/mL | MBC (Bacillus subtilis [9]): 6.3 µg/mL | MIC (Bacillus subtilis [9]): 6.3 µg/mL | MBC (Pseudomonas aeruginosa [10]): 12.5 µg/mL | MIC (Pseudomonas aeruginosa [10]): 12.5 µg/mL | MBC (Candida albicans [11]): < 1.6 µg/mL | MIC (Candida albicans [11]): < 1.6 µg/mL | MBC (Bacillus subtilis [12]): 25 µg/mL | MIC (Bacillus subtilis [12]): 25 µg/mL | MBC (Escherichia coli [13]): 12.5 µg/mL | MIC (Escherichia coli [13]): 6.3 µg/mL | MBC (Salmonella enterica [14]): 50 µg/mL | MIC (Salmonella enterica [14]): 12.5 µg/mL | zone of inhibition at 1 µg/mL (Staphylococcus aureus [4]): 10 mm | MBC (Pseudomonas aeruginosa [15]): 100 µg/mL | MIC (Pseudomonas aeruginosa [15]): 50 µg/mL | MBC (Staphylococcus aureus [16]): 50 µg/mL | MIC (Staphylococcus aureus [16]): 12.5 µg/mL | zone of inhibition at 1 µg/mL (Candida albicans [5]): 10 mm | zone of inhibition at 1 µg/mL (Pseudomonas aeruginosa [6]): 0 mm | MBC (Candida albicans [17]): < 1.6 µg/mL | MIC (Candida albicans [17]): < 1.6 µg/mL | MBC (Staphylococcus aureus [18]): 25 µg/mL | MIC (Staphylococcus aureus [18]): 12.5 µg/mL
